Reference: ChEMBL document CHEMBL2346588, “Design, synthesis, and biological activity of diaryl ether inhibitors of Toxoplasma gondii enoyl reductase” (Bioorg Med Chem Lett, 2013)
pIC50: −log10 of the molar value. Values after ≈ are worked out from the molar mass of the structure shown. Active and inactive are the calls of the source. The rule behind the calls is not given here.

Assays:
HFF = test: Cytotoxicity against HFF assessed as inhibition of [3H]-thymidine incorporation after 24 hrs by […] assay; type: cell-based; conditions: human
Toxoplasma gondii [1] = test: Antiparasitic activity against Toxoplasma gondii infected in BALB/c mouse assessed as reduction of parasite burden at 25 mg/kg, ip qd for 5 days; type: functional, organism-based; set-up: dose 25 mg/kg
Toxoplasma gondii [2] = test: Antiparasitic activity against Toxoplasma gondii type 1 RH expressing YFP infected in HFF assessed as inhibition of [3H]-uracil incorporation after 72 hrs by liquid scintillation counting; type: functional
[3] = target: T1, Enoyl-acyl carrier reductase (Toxoplasma gondii) (UniProt Q6UCJ9); test: Inhibition of Toxoplasma gondii enoyl reductase assessed as conversion of trans-2-acyl-ACP to acyl-ACP at 1 uM
T1 sequence (whole entry): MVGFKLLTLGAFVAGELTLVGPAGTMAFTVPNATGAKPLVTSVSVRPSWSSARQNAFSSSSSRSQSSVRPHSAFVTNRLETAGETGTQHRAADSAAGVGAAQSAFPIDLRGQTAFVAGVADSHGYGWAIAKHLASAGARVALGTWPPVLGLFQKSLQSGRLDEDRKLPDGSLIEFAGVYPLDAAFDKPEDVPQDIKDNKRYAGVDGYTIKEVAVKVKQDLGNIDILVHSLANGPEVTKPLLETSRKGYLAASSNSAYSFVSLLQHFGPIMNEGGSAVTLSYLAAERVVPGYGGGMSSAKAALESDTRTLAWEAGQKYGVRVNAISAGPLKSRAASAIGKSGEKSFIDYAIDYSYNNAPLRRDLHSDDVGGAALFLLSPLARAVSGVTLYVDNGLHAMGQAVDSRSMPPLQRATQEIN

[4] = target: T2, Enoyl-acyl carrier reductase (Toxoplasma gondii, UniProt Q6UCJ9); test: Inhibition of Toxoplasma gondii enoyl reductase assessed as conversion of trans-2-acyl-ACP to acyl-ACP
T2 sequence (Q6UCJ9 whole entry): T1 sequence (whole entry)

Plasmodium falciparum [5] = test: Antimalarial activity against Plasmodium falciparum D6 after 24 hrs by SYBR Green I based fluorescence assay; type: functional, organism-based; conditions: D6, 24 h
Plasmodium falciparum [6] = test: Antimalarial activity against chloroquine-resistant Plasmodium falciparum TM91C235 after 24 hrs by SYBR Green I based fluorescence assay; type: functional, organism-based; conditions: TM91C235, 24 h
Toxoplasma gondii [7] = test: Antiparasitic activity against Toxoplasma gondii infected in BALB/c mouse assessed as reduction of parasite burden at 50 mg/kg, ip qd for 5 days; type: functional, organism-based; set-up: dose 50 mg/kg
Mus musculus = test: Toxicity in Toxoplasma gondii infected BALB/c mouse assessed mortality at 75 mg/kg, ip qd for 5 days measured 7 day after infection; type: organism-based; set-up: dose 75 mg/kg, route intraperitoneal; conditions: in vivo, 168 h

Structure (SMILES)	INH (HFF) [µM]	Activity (Toxoplasma gondii [1])	MIC50 (Toxoplasma gondii [2]) [µM]	inhibition [3] [%]	pIC50 [4]	IC50 (Plasmodium falciparum [5]) [µg/mL]	IC50 (Plasmodium falciparum [6]) [µg/mL]	Activity (Toxoplasma gondii [7])	Activity (Mus musculus)
Oc1cc(Cl)ccc1Oc1ccc(Cl)cc1Cl [TRICLOSAN]	> 10	Active	5 (≈ 1.45 µg/mL)						
O=C(O)c1ccc(Oc2ccc(Cl)cc2O)o1	> 10		> 10	79					
CC(=O)N1CCN(Cc2ccc(Oc3ccc(Cl)cc3O)s2)CC1	> 10		5 (≈ 1.83 µg/mL)	73	6.02				
O=C(O)c1ccc(Oc2ccc(Cl)cc2O)s1	> 10		10 (≈ 2.71 µg/mL)	48					
O=S(=O)(c1ccc(Oc2ccc(Cl)cc2O)cc1)N1CCCCC1	> 10		10 (≈ 3.68 µg/mL)	81					
Cc1cc(NC(=O)c2ccc(Oc3ccc(Cl)cc3O)o2)no1	> 10		10 (≈ 3.35 µg/mL)	90	7.24				
Cn1cc(C(=O)Nc2ccc(Cl)cc2O)c(C(F)(F)F)n1	> 10		> 10	27					
Oc1cc(Cl)ccc1Oc1ccc2ncccc2c1	> 10		7.5 (≈ 2.04 µg/mL)	87	6.87				
CC(C)(C)OC(=O)N1CCN(C(=O)c2ccc(Oc3ccc(Cl)cc3O)s2)CC1	> 10		> 10	76					
Oc1cc(Cl)ccc1Oc1ccc(N2CCOCC2)cc1	> 10		> 10	74					
CC(=O)N1CCN(c2ccc(Oc3ccc(Cl)cc3O)cc2)CC1	> 10		1.5 (≈ 0.52 µg/mL)	81	6.65	> 10	> 10	inactive	Toxic
CC(=O)N1CCN(C(=O)c2ccc(Oc3ccc(Cl)cc3O)o2)CC1	> 10		> 10	45					
O=S(=O)(c1ccc(Oc2ccc(Cl)cc2O)cc1)N1CCCC1	> 10		10 (≈ 3.54 µg/mL)	78					
CN1CCN(Cc2ccc(Oc3ccc(Cl)cc3O)cc2)CC1	> 10		> 10	32					
CNC(=O)c1ccc(Oc2ccc(Cl)cc2O)o1	> 10		> 10	46					
CCNC(=O)c1ccc(Oc2ccc(Cl)cc2O)s1	10			75					
Oc1cc(Cl)ccc1Oc1ccc2ccccc2c1	> 10		10 (≈ 2.71 µg/mL)	91	7.39				
O=C(c1ccc(Oc2ccc(Cl)cc2O)s1)N1CCNCC1	> 10		> 10	60					
CN1CCN(c2ccc(Oc3ccc(Cl)cc3O)cc2)CC1	> 10			25					
Oc1cc(Cl)ccc1Oc1ccc(C(F)(F)F)cc1Cl	> 10		4 (≈ 1.29 µg/mL)	95	7.52				
